System: Meloidogyne incognita
Experiment: Test against Meloidogyne spp. (soil pot test)
Type: in vivo
Conditions: 672 h; 10 ppm in soil contaminated by Meloidogyne incognita; tomato (Kurihara), greenhouse 4 weeks; from root knot index; read-out: controlling effect
Protocol: Test Against Meloidogyne spp. (Soil Pot Test)
Preparation of Test Agent:
1 Part of the active compound is impregnated to 99 parts of pumice to make fine granules.
A compound of the formula (I) was added to the soil contaminated by Meloidogyne incognita so that the chemical concentration would be 10 ppm and homogeneously mixed by stirring. A pot ( 1/5000 are) was filled with the soil. About 20 seeds of tomato (variety: Kurihara) were sown per pot. After cultivation in a greenhouse for 4 weeks, they were carefully pulled out not to damage the roots and the root knot index and the controlling effect were determined as follows.
1: A few knots were formed
2: Knots were formed to a medium extent
3: Knots were formed to an intense extent
4: Knots were formed to the most intense extent (corresponds to non-treatment). [formula]
Evaluation of the ability of the tested compounds to control the nematodes was done according to the values obtained for the controlling effect and with the following standards. […]
a: Controlling effect 100-71% b: Controlling effect 70-50% c: Controlling effect less than 50%

Row | Structure (SMILES) | pest or weed control at 10 ppm
1 | FC(F)=C(F)CCSc1ncco1 [Compound 1, 2-(3,4,4-trifluoro-3-butenylthio)oxazole] | 71 to 100%
2 | [O-][S+](CCC(F)=C(F)F)c1ncco1 (centres unmarked) [Compound 2, 2-(3,4,4-trifluoro-3-butenylsulfinyl)oxazole] | 71 to 100%
3 | O=S(=O)(CCC(F)=C(F)F)c1ncco1 [Compound 3, 2-(3,4,4-trifluoro-3-butenylsulfonyl)oxazole] | 71 to 100%
4 | FC(F)=C(F)CCSc1ncc(Cl)o1 [Compound 4, 5-chloro-2-(3,4,4-trifluoro-3-butenylthio)oxazole] | 71 to 100%
5 | FC(F)=C(F)CCSc1nc(CBr)c(Br)o1 [Compound 39, 5-bromo-4-bromomethyl-2-(3,4,4-trifluoro-3-butenylthio)oxazole] | 71 to 100%
6 | COCc1cnc(SCCC(F)=C(F)F)o1 [Compound 46, 5-methoxymethyl-2-(3,4,4-trifluoro-3-butenylthio)oxazole] | 71 to 100%
7 | FC(F)=C(F)CCSc1nc(Cl)co1 [Compound 52, 4-chloro-2-(3,4,4-trifluoro-3-butenylthio)oxazole] | 71 to 100%
8 | OCc1coc(SCCC(F)=C(F)F)n1 [Compound 75, 4-hydroxymethyl-2-(3,4,4-trifluoro-3-butenylthio)oxazole] | 71 to 100%
9 | COCc1coc(SCCC(F)=C(F)F)n1 [Compound 78, 4-methoxymethyl-2-(3,4,4-trifluoro-3-butenylthio)oxazole] | 71 to 100%
10 | CSCc1coc(SCCC(F)=C(F)F)n1 [Compound 86, 4-methylthiomethyl-2-(3,4,4-trifluoro-3-butenylthio)oxazole] | 71 to 100%
11 | CS(=O)(=O)Oc1coc(SCCC(F)=C(F)F)n1 [Compound 127, 4-methylsulfonyloxy-2-(3,4,4-trifluoro-3-butenylthio)oxazole] | 71 to 100%
